Measured values from ChEMBL document CHEMBL4017472, “New modified 2-aminobenzimidazole nucleosides: Synthesis and evaluation of their activity against herpes simplex virus type 1” (Bioorg Med Chem Lett, 2017).

test system: Human alphaherpesvirus 1; test: Antiviral activity against acyclovir-resistant HSV-1 L2 infected in African green monkey Vero E6 cells assessed as reduction in virus-induced cytopathic effect; assay type: functional; settings: Human alphaherpesvirus 1, L2, Vero C1008

Row | SMILES | IC50 | IC95
1 | Nc1nc2c(ncn2COCCO)c(=O)[nH]1 [ACYCLOVIR] | > 444 µM | > 444 µM
2 | Nc1ccn(C[C@@H](CO)OCP(=O)(O)O)c(=O)n1.O.O [CIDOFOVIR] | 14 µM | 55.9 µM
3 | NC(=O)c1ncn([C@@H]2O[C@H](CO)[C@@H](O)[C@H]2O)n1 [RIBAVIRIN] | 1020 µM | > 4100 µM
4 | O.O.O.O.O.O.O=C([O-])P(=O)([O-])[O-].[Na+].[Na+].[Na+] | 104 µM | 208 µM

test system: Human alphaherpesvirus 1; test: Antiviral activity against foscarnet-resistant HSV-1 F+ infected in African green monkey Vero E6 cells assessed as reduction in virus-induced cytopathic effect; assay type: functional; settings: Human alphaherpesvirus 1, F+, Vero C1008

Row | SMILES | IC50 | IC95
5 | Nc1nc2c(ncn2COCCO)c(=O)[nH]1 [ACYCLOVIR] | 3.5 µM | 13.9 µM
6 | Nc1ccn(C[C@@H](CO)OCP(=O)(O)O)c(=O)n1.O.O [CIDOFOVIR] | 27.9 µM | 448 µM
7 | NC(=O)c1ncn([C@@H]2O[C@H](CO)[C@@H](O)[C@H]2O)n1 [RIBAVIRIN] |  | > 4100 µM
8 | O.O.O.O.O.O.O=C([O-])P(=O)([O-])[O-].[Na+].[Na+].[Na+] | 833 µM | > 833 µM

test system: Human alphaherpesvirus 1; test: Antiviral activity against HSV-1 L2/Rp-ACV/2 infected in African green monkey Vero E6 cells assessed as reduction in virus-induced cytopathic effect; assay type: functional; settings: Human alphaherpesvirus 1, L2/Rp-ACV/2, Vero C1008

Row | SMILES | IC50 | IC95
9 | Nc1nc2c(ncn2COCCO)c(=O)[nH]1 [ACYCLOVIR] | 27.8 µM | 111 µM
10 | Nc1ccn(C[C@@H](CO)OCP(=O)(O)O)c(=O)n1.O.O [CIDOFOVIR] | 1.8 µM | 27.9 µM
11 | NC(=O)c1ncn([C@@H]2O[C@H](CO)[C@@H](O)[C@H]2O)n1 [RIBAVIRIN] | 1020 µM | > 4100 µM
12 | O.O.O.O.O.O.O=C([O-])P(=O)([O-])[O-].[Na+].[Na+].[Na+] | 52 µM | 104 µM

test system: not listed separately; test: Selectivity index, ratio of MCC for African green monkey Vero E6 cells to IC50 for HSV-1 L2/Rp-ACV/2 infected in African green monkey Vero E6 cells; parameters: species or system Vero C1008; settings: not given

Row | SMILES | Selectivity Index
13 | Nc1nc2c(ncn2COCCO)c(=O)[nH]1 [ACYCLOVIR] | 16
14 | Nc1ccn(C[C@@H](CO)OCP(=O)(O)O)c(=O)n1.O.O [CIDOFOVIR] | >204
15 | NC(=O)c1ncn([C@@H]2O[C@H](CO)[C@@H](O)[C@H]2O)n1 [RIBAVIRIN] | >4
16 | O.O.O.O.O.O.O=C([O-])P(=O)([O-])[O-].[Na+].[Na+].[Na+] | 16

test system: not listed separately; test: Selectivity index, ratio of MCC for African green monkey Vero E6 cells to IC50 for acyclovir and foscarnet-resistant HSV-1 L2 infected in African green monkey Vero E6 cells; parameters: species or system Vero C1008; settings: not given

Row | SMILES | Selectivity Index
17 | Nc1nc2c(ncn2COCCO)c(=O)[nH]1 [ACYCLOVIR] | >1
18 | Nc1ccn(C[C@@H](CO)OCP(=O)(O)O)c(=O)n1.O.O [CIDOFOVIR] | >51
19 | NC(=O)c1ncn([C@@H]2O[C@H](CO)[C@@H](O)[C@H]2O)n1 [RIBAVIRIN] | >4
20 | O.O.O.O.O.O.O=C([O-])P(=O)([O-])[O-].[Na+].[Na+].[Na+] | 2

test system: not listed separately; test: Selectivity index, ratio of MCC for African green monkey Vero E6 cells to IC50 for acyclovir and cidofovir-resistant HSV-1 L2 infected in African green monkey Vero E6 cells; parameters: species or system Vero C1008; settings: not given

Row | SMILES | Selectivity Index
21 | Nc1nc2c(ncn2COCCO)c(=O)[nH]1 [ACYCLOVIR] | >26
22 | Nc1ccn(C[C@@H](CO)OCP(=O)(O)O)c(=O)n1.O.O [CIDOFOVIR] | >6.4
23 | NC(=O)c1ncn([C@@H]2O[C@H](CO)[C@@H](O)[C@H]2O)n1 [RIBAVIRIN] | >4
24 | O.O.O.O.O.O.O=C([O-])P(=O)([O-])[O-].[Na+].[Na+].[Na+] | 8

test system: Human alphaherpesvirus 1; test: Antiviral activity against HSV1 L2 infected in African green monkey Vero E6 cells assessed as reduction in virus-induced cytopathic effect; assay type: functional; settings: Human alphaherpesvirus 1, L2, Vero C1008

Row | SMILES | IC50 | IC95
25 | Nc1nc2cc(F)c(F)cc2n1[C@H]1C[C@H](O)[C@@H](CO)O1 | 876 µM | 3510 µM
26 | Nc1nc2c(ncn2COCCO)c(=O)[nH]1 [ACYCLOVIR] | 1.73 µM | 6.9 µM
27 | Nc1ccn(C[C@@H](CO)OCP(=O)(O)O)c(=O)n1.O.O [CIDOFOVIR] | 14 µM | 55.9 µM
28 | NC(=O)c1ncn([C@@H]2O[C@H](CO)[C@@H](O)[C@H]2O)n1 [RIBAVIRIN] | 512 µM | 2050 µM
29 | O.O.O.O.O.O.O=C([O-])P(=O)([O-])[O-].[Na+].[Na+].[Na+] | 104 µM | 208 µM
30 | CC(C)Nc1nc2cc(Cl)c(Cl)cc2n1[C@H]1O[C@@H](CO)[C@H](O)[C@@H]1O [MARIBAVIR] | 665 µM | > 665 µM

test system: Human alphaherpesvirus 1; test: Antiviral activity against acyclovir and cidofovir-resistant HSV-1 L2 infected in African green monkey Vero E6 cells assessed as reduction in virus-induced cytopathic effect; assay type: functional; settings: Human alphaherpesvirus 1, L2, Vero C1008

Row | SMILES | IC50 | IC95
31 | Nc1nc2c(ncn2COCCO)c(=O)[nH]1 [ACYCLOVIR] | 17.3 µM | 139 µM
32 | Nc1ccn(C[C@@H](CO)OCP(=O)(O)O)c(=O)n1.O.O [CIDOFOVIR] | 112 µM | 895 µM
33 | NC(=O)c1ncn([C@@H]2O[C@H](CO)[C@@H](O)[C@H]2O)n1 [RIBAVIRIN] | 1020 µM | > 4100 µM
34 | O.O.O.O.O.O.O=C([O-])P(=O)([O-])[O-].[Na+].[Na+].[Na+] | 104 µM | 208 µM

test system: not listed separately; test: Cytotoxicity against African green monkey Vero E6 cells measured after 3 days by trypan blue assay; assay type: cell-based, Vero C1008; settings: chlorocebus sabaeus

Row | SMILES | MCC at 72 h
35 | Nc1nc2cc(F)c(F)cc2n1[C@H]1C[C@H](O)[C@@H](CO)O1 | > 3500 µM
36 | Nc1nc2c(ncn2COCCO)c(=O)[nH]1 [ACYCLOVIR] | > 444 µM
37 | Nc1ccn(C[C@@H](CO)OCP(=O)(O)O)c(=O)n1.O.O [CIDOFOVIR] | > 358 µM
38 | NC(=O)c1ncn([C@@H]2O[C@H](CO)[C@@H](O)[C@H]2O)n1 [RIBAVIRIN] | > 4100 µM
39 | O.O.O.O.O.O.O=C([O-])P(=O)([O-])[O-].[Na+].[Na+].[Na+] | 833 µM
40 | CC(C)Nc1nc2cc(Cl)c(Cl)cc2n1[C@H]1O[C@@H](CO)[C@H](O)[C@@H]1O [MARIBAVIR] | 665 µM

test system: not listed separately; test: Selectivity index, ratio of MCC for African green monkey Vero E6 cells to IC50 for HSV-1 L2 infected in African green monkey Vero E6 cells; parameters: species or system Vero C1008; settings: not given

Row | SMILES | Selectivity Index
41 | Nc1nc2cc(F)c(F)cc2n1[C@H]1C[C@H](O)[C@@H](CO)O1 | >4
42 | Nc1nc2c(ncn2COCCO)c(=O)[nH]1 [ACYCLOVIR] | >256
43 | Nc1ccn(C[C@@H](CO)OCP(=O)(O)O)c(=O)n1.O.O [CIDOFOVIR] | >26
44 | NC(=O)c1ncn([C@@H]2O[C@H](CO)[C@@H](O)[C@H]2O)n1 [RIBAVIRIN] | >8
45 | O.O.O.O.O.O.O=C([O-])P(=O)([O-])[O-].[Na+].[Na+].[Na+] | 8
46 | CC(C)Nc1nc2cc(Cl)c(Cl)cc2n1[C@H]1O[C@@H](CO)[C@H](O)[C@@H]1O [MARIBAVIR] | 1

test system: not listed separately; test: Selectivity index, ratio of MCC for African green monkey Vero E6 cells to IC50 for HSV-1 F+ infected in African green monkey Vero E6 cells; parameters: species or system Vero C1008; settings: not given

Row | SMILES | Selectivity Index
47 | Nc1nc2c(ncn2COCCO)c(=O)[nH]1 [ACYCLOVIR] | >128
48 | Nc1ccn(C[C@@H](CO)OCP(=O)(O)O)c(=O)n1.O.O [CIDOFOVIR] | >13
49 | NC(=O)c1ncn([C@@H]2O[C@H](CO)[C@@H](O)[C@H]2O)n1 [RIBAVIRIN] | >4
50 | O.O.O.O.O.O.O=C([O-])P(=O)([O-])[O-].[Na+].[Na+].[Na+] | 1

test system: Human alphaherpesvirus 1; test: Antiviral activity against acyclovir and foscarnet-resistant HSV-1 L2 infected in African green monkey Vero E6 cells assessed as reduction in virus-induced cytopathic effect; assay type: functional; settings: Human alphaherpesvirus 1, L2, Vero C1008

Row | SMILES | IC50 | IC95
51 | Nc1nc2c(ncn2COCCO)c(=O)[nH]1 [ACYCLOVIR] | > 444 µM | > 444 µM
52 | Nc1ccn(C[C@@H](CO)OCP(=O)(O)O)c(=O)n1.O.O [CIDOFOVIR] | 7 µM | 27.9 µM
53 | NC(=O)c1ncn([C@@H]2O[C@H](CO)[C@@H](O)[C@H]2O)n1 [RIBAVIRIN] | 1020 µM | > 4100 µM
54 | O.O.O.O.O.O.O=C([O-])P(=O)([O-])[O-].[Na+].[Na+].[Na+] | 417 µM | > 833 µM

test system: not listed separately; test: Selectivity index, ratio of MCC for African green monkey Vero E6 cells to IC50 for acyclovir-resistant HSV-1 L2 infected in African green monkey Vero E6 cells; parameters: species or system Vero C1008; settings: not given

Row | SMILES | Selectivity Index
55 | Nc1nc2c(ncn2COCCO)c(=O)[nH]1 [ACYCLOVIR] | >1
56 | Nc1ccn(C[C@@H](CO)OCP(=O)(O)O)c(=O)n1.O.O [CIDOFOVIR] | >26
57 | NC(=O)c1ncn([C@@H]2O[C@H](CO)[C@@H](O)[C@H]2O)n1 [RIBAVIRIN] | >4
58 | O.O.O.O.O.O.O=C([O-])P(=O)([O-])[O-].[Na+].[Na+].[Na+] | 8
